Experimental data reported in ChEMBL document CHEMBL5335856, “Structurally Diverse Alkaloids with Anti-Renal-Fibrosis Activity from the Centipede Scolopendra subspinipes mutilans” (J Nat Prod, 2024).
Activity calls are given as the source filed them. No cut-off for these calls is given here.

Assays:
NRK-52E [1] = test: Anti-renal-fibrosis activity in TGF-beta1 induced rat NRK-52E cells assessed as downregulation of collagen I protein level at 20 uM by Western blot analysis; format: functional, cell-based
NRK-52E [2] = test: Anti-renal-fibrosis activity in TGF-beta1 induced rat NRK-52E cells assessed as downregulation of alpha-SMA protein level at 20 uM by Western blot analysis; format: functional, cell-based
NRK-52E [3] = test: Anti-renal-fibrosis activity in TGF-beta1 induced rat NRK-52E cells assessed as downregulation of collagen I expression at 40 uM; format: functional, cell-based
NRK-52E [4] = test: Anti-renal-fibrosis activity in TGF-beta1 induced rat NRK-52E cells assessed as downregulation of alpha-SMA expression at 40 uM; format: functional, cell-based
[5] = biological target: 2-oxoisovalerate dehydrogenase subunit beta, mitochondrial (Homo sapiens) (UniProt P21953); test: Binding affinity to BCKDHB (unknown origin) at 200 uM preincubated for 2 hrs followed by pronase addition and measured after 30 mins by coomassie blue staining based SDS-PAGE gel analysis
[6] = biological target: Protein YIF1A (Homo sapiens) (UniProt O95070); test: Binding affinity to Yif1a (unknown origin) at 200 uM preincubated for 2 hrs followed by pronase addition and measured after 30 mins by coomassie blue staining based SDS-PAGE gel analysis
[7] = biological target: Poly(rC)-binding protein 3 (Homo sapiens) (UniProt P57721); test: Binding affinity to Pcbp3 (unknown origin) at 200 uM preincubated for 2 hrs followed by pronase addition and measured after 30 mins by coomassie blue staining based SDS-PAGE gel analysis
[8] = biological target: Glutathione hydrolase 7 (Homo sapiens) (UniProt Q9UJ14); test: Binding affinity to Ggt7 (unknown origin) at 200 uM preincubated for 2 hrs followed by pronase addition and measured after 30 mins by coomassie blue staining based SDS-PAGE gel analysis
[9] = biological target: Kinesin-like protein KIF21A (Homo sapiens) (UniProt Q7Z4S6); test: Binding affinity to Kif21a (unknown origin) at 200 uM preincubated for 2 hrs followed by pronase addition and measured after 30 mins by coomassie blue staining based SDS-PAGE gel analysis
[10] = biological target: CD2-associated protein (Homo sapiens) (UniProt Q9Y5K6); test: Binding affinity to Cd2ap (unknown origin) at 200 uM preincubated for 2 hrs followed by pronase addition and measured after 30 mins by coomassie blue staining based SDS-PAGE gel analysis
[11] = biological target: SWI/SNF-related matrix-associated actin-dependent regulator of chromatin subfamily D member 2 (Homo sapiens) (UniProt Q92925); test: Binding affinity to Smarcd2 (unknown origin) at 200 uM preincubated for 2 hrs followed by pronase addition and measured after 30 mins by coomassie blue staining based SDS-PAGE gel analysis
[12] = biological target: Tropomyosin alpha-3 chain (Homo sapiens) (UniProt P06753); test: Binding affinity to Tpm3 (unknown origin) at 200 uM preincubated for 2 hrs followed by pronase addition and measured after 30 mins by coomassie blue staining based SDS-PAGE gel analysis
[13] = biological target: Armadillo repeat-containing protein 10 (Homo sapiens) (UniProt Q8N2F6); test: Binding affinity to Armc10 (unknown origin) at 200 uM preincubated for 2 hrs followed by pronase addition and measured after 30 mins by coomassie blue staining based SDS-PAGE gel analysis
Homo sapiens = species on record: Homo sapiens; test: Binding affinity to Wdr95 (unknown origin) at 200 uM preincubated for 2 hrs followed by pronase addition and measured after 30 mins by coomassie blue staining based SDS-PAGE gel analysis
[14] = biological target: Serine/threonine-protein kinase TAO3 (Homo sapiens) (UniProt Q9H2K8); test: Binding affinity to Taok3 (unknown origin) at 200 uM preincubated for 2 hrs followed by pronase addition and measured after 30 mins by coomassie blue staining based SDS-PAGE gel analysis
[15] = biological target: Deoxycytidine kinase (Homo sapiens) (UniProt P27707); test: Binding affinity to Dck (unknown origin) at 200 uM preincubated for 2 hrs followed by pronase addition and measured after 30 mins by coomassie blue staining based SDS-PAGE gel analysis
[16] = biological target: Rho-related GTP-binding protein RhoB (Homo sapiens) (UniProt P62745); test: Binding affinity to RHOB (unknown origin) at 200 uM preincubated for 2 hrs followed by pronase addition and measured after 30 mins by coomassie blue staining based SDS-PAGE gel analysis
[17] = biological target: Ubiquitin-like modifier-activating enzyme 5 (Homo sapiens) (UniProt Q9GZZ9); test: Binding affinity to Uba5 (unknown origin) at 200 uM preincubated for 2 hrs followed by pronase addition and measured after 30 mins by coomassie blue staining based SDS-PAGE gel analysis
[18] = biological target: Lysosome-associated membrane glycoprotein 2 (Homo sapiens) (UniProt P13473); test: Binding affinity to Lamp2 (unknown origin) assessed as fold change in protein upregulation at 200 uM preincubated for 2 hrs followed by pronase addition and measured after 30 mins by coomassie blue staining based SDS-PAGE gel analysis
[19] = biological target: Splicing factor 3A subunit 3 (Homo sapiens) (UniProt Q12874); test: Binding affinity to Sf3a3 (unknown origin) assessed as fold change in protein upregulation at 200 uM preincubated for 2 hrs followed by pronase addition and measured after 30 mins by coomassie blue staining based SDS-PAGE gel analysis
[20] = biological target: Sorting nexin-3 (Homo sapiens) (UniProt O60493); test: Binding affinity to Snx3 (unknown origin) assessed as fold change in protein upregulation at 200 uM preincubated for 2 hrs followed by pronase addition and measured after 30 mins by coomassie blue staining based SDS-PAGE gel analysis
[21] = biological target: Tyrosine-protein phosphatase non-receptor type 2 (Homo sapiens) (UniProt P17706); test: Binding affinity to Ptpn2 (unknown origin) assessed as fold change in protein upregulation at 200 uM preincubated for 2 hrs followed by pronase addition and measured after 30 mins by coomassie blue staining based SDS-PAGE gel analysis
[22] = biological target: Stress-induced-phosphoprotein 1 (Homo sapiens) (UniProt P31948); test: Binding affinity to Stip1 (unknown origin) assessed as fold change in protein upregulation at 200 uM preincubated for 2 hrs followed by pronase addition and measured after 30 mins by coomassie blue staining based SDS-PAGE gel analysis
[23] = biological target: Far upstream element-binding protein 1 (Homo sapiens) (UniProt Q96AE4); test: Binding affinity to Fubp1 (unknown origin) assessed as fold change in protein upregulation at 200 uM preincubated for 2 hrs followed by pronase addition and measured after 30 mins by coomassie blue staining based SDS-PAGE gel analysis
[24] = biological target: Heat shock 70 kDa protein 4L (Homo sapiens) (UniProt O95757); test: Binding affinity to Hspa4l (unknown origin) assessed as fold change in protein upregulation at 200 uM preincubated for 2 hrs followed by pronase addition and measured after 30 mins by coomassie blue staining based SDS-PAGE gel analysis
[25] = biological target: Protein O-mannosyl-transferase TMTC3 (Homo sapiens) (UniProt Q6ZXV5); test: Binding affinity to Tmtc3 (unknown origin) assessed as fold change in protein upregulation at 200 uM preincubated for 2 hrs followed by pronase addition and measured after 30 mins by coomassie blue staining based SDS-PAGE gel analysis
[26] = test system: RNA polymerase II-associated factor 1 homolog; test: Binding affinity to Paf1 (unknown origin) at 200 uM preincubated for 2 hrs followed by pronase addition and measured after 30 mins by coomassie blue staining based SDS-PAGE gel analysis; conditions: Homo sapiens

Far upstream element-binding protein 1 (Homo sapiens), sequence (Q96AE4 whole entry): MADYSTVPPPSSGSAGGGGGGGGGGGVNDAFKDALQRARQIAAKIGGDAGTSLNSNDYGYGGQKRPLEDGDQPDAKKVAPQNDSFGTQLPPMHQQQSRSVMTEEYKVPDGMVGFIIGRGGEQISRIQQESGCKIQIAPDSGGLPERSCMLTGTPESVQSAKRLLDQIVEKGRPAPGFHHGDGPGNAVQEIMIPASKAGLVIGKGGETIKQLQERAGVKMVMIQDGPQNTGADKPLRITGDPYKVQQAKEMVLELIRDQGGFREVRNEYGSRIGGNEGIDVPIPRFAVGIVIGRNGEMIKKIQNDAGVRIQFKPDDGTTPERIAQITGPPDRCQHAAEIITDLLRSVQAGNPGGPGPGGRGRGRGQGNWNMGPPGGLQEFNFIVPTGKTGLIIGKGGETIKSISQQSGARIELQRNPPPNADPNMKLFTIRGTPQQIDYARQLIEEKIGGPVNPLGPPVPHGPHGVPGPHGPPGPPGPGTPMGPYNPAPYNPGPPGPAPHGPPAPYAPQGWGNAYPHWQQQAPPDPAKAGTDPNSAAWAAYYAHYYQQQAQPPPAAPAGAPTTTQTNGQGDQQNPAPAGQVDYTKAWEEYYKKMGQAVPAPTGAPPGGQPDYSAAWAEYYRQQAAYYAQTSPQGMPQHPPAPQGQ
Stress-induced-phosphoprotein 1 (Homo sapiens), sequence (P31948 whole entry, looked up): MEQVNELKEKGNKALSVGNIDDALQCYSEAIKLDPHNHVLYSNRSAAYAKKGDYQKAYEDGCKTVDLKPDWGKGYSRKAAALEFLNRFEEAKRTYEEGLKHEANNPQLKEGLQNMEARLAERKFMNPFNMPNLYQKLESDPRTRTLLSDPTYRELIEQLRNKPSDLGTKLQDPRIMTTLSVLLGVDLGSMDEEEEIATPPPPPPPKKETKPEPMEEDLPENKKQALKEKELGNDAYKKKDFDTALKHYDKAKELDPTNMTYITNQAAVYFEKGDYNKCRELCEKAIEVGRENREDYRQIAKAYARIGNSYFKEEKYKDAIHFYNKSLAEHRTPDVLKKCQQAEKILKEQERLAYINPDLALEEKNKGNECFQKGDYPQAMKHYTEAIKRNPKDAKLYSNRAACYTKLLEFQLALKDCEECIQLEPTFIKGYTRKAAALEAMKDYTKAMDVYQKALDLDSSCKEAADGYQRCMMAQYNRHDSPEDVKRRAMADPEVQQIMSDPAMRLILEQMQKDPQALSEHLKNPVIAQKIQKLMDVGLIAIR
Poly(rC)-binding protein 3 (Homo sapiens), sequence (P57721 whole entry): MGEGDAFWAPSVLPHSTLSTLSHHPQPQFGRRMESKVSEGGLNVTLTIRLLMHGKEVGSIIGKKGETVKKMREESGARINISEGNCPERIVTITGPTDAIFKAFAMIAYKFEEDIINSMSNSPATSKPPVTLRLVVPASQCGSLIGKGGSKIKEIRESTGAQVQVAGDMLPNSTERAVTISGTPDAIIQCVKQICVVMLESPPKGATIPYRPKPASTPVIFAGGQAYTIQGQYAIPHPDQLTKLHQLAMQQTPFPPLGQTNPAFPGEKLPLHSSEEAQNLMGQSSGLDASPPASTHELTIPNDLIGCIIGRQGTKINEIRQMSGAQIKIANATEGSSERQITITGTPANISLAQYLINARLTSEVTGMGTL
Tropomyosin alpha-3 chain (Homo sapiens), sequence (P06753 whole entry): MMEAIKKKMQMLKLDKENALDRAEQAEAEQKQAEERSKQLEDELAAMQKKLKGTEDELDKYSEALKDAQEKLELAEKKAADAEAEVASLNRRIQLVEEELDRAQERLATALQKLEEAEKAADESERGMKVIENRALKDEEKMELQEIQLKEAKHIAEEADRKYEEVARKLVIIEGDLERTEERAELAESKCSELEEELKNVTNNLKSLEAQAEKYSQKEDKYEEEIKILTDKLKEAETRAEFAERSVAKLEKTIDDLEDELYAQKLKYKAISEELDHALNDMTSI
Ubiquitin-like modifier-activating enzyme 5 (Homo sapiens), sequence (Q9GZZ9 whole entry): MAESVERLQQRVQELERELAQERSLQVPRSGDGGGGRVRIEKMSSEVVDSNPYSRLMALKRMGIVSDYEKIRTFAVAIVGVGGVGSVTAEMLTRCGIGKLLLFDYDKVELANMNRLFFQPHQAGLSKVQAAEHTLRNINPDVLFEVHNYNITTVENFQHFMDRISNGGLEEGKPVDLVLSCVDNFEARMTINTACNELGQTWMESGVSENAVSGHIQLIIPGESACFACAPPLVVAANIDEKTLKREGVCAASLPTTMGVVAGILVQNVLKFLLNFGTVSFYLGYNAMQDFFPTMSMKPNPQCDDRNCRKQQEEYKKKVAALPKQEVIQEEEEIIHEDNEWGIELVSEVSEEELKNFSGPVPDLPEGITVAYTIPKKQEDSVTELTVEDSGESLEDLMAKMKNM
Armadillo repeat-containing protein 10 (Homo sapiens), sequence (Q8N2F6 whole entry): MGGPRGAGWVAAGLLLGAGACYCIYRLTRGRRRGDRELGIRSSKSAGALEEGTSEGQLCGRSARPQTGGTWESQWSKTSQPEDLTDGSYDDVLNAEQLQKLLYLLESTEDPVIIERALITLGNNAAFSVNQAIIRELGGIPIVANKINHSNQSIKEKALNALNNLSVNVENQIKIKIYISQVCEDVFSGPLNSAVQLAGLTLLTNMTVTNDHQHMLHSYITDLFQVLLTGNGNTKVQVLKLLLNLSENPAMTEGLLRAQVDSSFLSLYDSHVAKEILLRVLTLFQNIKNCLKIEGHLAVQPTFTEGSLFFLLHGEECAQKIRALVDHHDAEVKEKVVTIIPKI
Protein YIF1A (Homo sapiens), sequence (O95070 whole entry): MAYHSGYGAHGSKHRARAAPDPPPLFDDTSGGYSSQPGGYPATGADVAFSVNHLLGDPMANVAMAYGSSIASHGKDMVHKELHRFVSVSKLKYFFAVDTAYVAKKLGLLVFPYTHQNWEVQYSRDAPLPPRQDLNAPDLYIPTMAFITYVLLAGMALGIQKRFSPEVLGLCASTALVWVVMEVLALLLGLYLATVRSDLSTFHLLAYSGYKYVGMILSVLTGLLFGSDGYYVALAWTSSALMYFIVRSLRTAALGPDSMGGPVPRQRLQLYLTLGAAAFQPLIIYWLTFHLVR
Rho-related GTP-binding protein RhoB (Homo sapiens), sequence (P62745 whole entry): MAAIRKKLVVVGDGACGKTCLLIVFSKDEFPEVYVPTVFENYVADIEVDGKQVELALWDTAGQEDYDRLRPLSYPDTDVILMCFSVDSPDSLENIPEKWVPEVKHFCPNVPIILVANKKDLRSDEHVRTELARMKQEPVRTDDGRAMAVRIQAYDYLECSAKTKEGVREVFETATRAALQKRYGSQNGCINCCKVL
Sorting nexin-3 (Homo sapiens), sequence (O60493 whole entry): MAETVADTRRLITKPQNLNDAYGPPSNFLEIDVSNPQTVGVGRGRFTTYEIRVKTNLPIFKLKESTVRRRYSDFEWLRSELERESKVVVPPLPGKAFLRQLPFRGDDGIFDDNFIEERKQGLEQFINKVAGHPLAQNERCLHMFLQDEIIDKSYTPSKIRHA
Kinesin-like protein KIF21A (Homo sapiens), sequence (Q7Z4S6 whole entry): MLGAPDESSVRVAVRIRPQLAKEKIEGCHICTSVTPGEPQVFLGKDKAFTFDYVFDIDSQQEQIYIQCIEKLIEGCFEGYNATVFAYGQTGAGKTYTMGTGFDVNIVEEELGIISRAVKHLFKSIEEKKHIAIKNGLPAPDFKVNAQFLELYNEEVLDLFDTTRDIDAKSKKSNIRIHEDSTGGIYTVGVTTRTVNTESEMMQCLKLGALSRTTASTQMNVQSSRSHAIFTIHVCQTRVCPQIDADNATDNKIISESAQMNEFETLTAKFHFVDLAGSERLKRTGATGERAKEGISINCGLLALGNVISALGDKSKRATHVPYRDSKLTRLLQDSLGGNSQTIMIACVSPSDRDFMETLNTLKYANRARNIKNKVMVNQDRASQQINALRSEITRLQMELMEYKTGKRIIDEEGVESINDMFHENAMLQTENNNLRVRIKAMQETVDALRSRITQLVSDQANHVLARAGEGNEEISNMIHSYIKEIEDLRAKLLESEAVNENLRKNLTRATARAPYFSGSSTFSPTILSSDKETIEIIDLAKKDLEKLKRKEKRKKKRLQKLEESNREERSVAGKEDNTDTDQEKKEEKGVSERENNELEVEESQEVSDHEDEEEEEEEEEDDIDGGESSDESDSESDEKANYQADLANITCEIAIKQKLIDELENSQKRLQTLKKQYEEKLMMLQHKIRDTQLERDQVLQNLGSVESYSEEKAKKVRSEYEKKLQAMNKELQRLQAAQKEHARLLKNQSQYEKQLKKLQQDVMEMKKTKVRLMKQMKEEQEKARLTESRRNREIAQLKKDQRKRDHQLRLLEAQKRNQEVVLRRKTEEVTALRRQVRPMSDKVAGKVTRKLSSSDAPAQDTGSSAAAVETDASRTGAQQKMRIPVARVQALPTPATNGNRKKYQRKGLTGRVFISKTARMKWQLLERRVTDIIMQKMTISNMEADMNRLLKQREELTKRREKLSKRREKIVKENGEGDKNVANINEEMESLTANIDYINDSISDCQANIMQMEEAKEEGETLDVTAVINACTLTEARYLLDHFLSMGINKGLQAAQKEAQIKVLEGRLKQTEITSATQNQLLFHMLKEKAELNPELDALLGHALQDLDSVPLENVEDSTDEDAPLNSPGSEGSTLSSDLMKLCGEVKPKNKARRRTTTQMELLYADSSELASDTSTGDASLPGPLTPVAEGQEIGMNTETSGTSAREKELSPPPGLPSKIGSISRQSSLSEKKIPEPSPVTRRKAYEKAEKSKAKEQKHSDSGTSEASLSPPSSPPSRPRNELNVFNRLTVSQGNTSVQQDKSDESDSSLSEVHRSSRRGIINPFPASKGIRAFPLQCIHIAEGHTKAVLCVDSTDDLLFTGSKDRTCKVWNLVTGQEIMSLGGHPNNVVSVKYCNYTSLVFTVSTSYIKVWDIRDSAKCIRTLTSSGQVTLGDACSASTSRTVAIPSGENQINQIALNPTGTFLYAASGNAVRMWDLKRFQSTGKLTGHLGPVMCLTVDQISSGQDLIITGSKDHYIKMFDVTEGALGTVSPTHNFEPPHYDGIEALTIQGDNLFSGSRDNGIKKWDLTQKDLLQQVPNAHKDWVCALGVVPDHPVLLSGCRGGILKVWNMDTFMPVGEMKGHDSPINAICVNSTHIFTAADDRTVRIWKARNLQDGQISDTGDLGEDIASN

Activity [5]: Active
Activity [6]: Active
Activity [7]: Active
Activity [8]: Active
Activity [9]: Active
Activity [10]: Active
Activity [11]: Active
Activity [12]: Active
Activity [13]: Active
Activity (Homo sapiens): Active
Activity [14]: Active
Activity [15]: Active
Activity [16]: Active
Activity [17]: Active
fold change (FC) [18]: 2.42
fold change (FC) [19]: 1.8
fold change (FC) [20]: 1.67
fold change (FC) [21]: 1.57
fold change (FC) [22]: 1.33
fold change (FC) [23]: 1.29
fold change (FC) [24]: 1.28
fold change (FC) [25]: 1.22
Activity [26]: Active
SMILES: COc1c(O)nc2c(O)cccc2c1OC
Activity (NRK-52E [1]): Active
Activity (NRK-52E [2]): Active
Activity (NRK-52E [3]): Active
Activity (NRK-52E [4]): Active
